Test system: mouse cortical cultures
Experiment: RNA-seq differential expression (DESeq) against matched vehicle
Format: cell-based
Experimental: Figure 4 Cluster 2 chemicals alter expression of a common set of genes. […] RNA-seq was performed in quadruplicate after treating cortical cultures with fenamidone (10 μM) or pyraclostrobin (0.1 μM) for 24 h (n=3 biological replicates) and compared with matched vehicle controls using DESeq to detect differentially expressed genes, listed in Supplementary Data 4.
Cultures were treated with the non-cytotoxic dose of each chemical, by exchanging half of the original medium with chemicals at 2 × concentration in prewarmed feeding medium, on DIV 7 for 24 h in 12-well plates at a density of 5 × 10^5 cells per well. RNA was isolated using RNeasy plus mini kit (Cat. #74134, Qiagen). […]. Samples were further assessed for quality using either an Agilent Bioanalyzer 2100 or TapeStation 2200 to obtain a RIN. RIN values exceeding 7 were used for sequencing. RNA samples were used to generate and barcode complementary DNA libraries using the TruSeq RNA Library Preparation Kit at the UNC High Throughput Sequencing Facility. Pools of 24 multiplexed samples were sequenced per lane on an Illumina HiSeq 2500 using 50-bp paired-end reads.
RNA-seq reads were filtered using TagDust and aligned to the reference mouse genome (mm9) with TopHat using default parameters. Reads aligning to ribosomal RNA genes were removed. Transcript abundance was estimated by computing Reads per kilobase per million mapped reads (RPKM) using RefSeq gene models aggregated by gene symbol. For differential expression analyses, raw counts over RefSeq exons were used, and then were compared across samples using DESeq[62].

CSC1=N[C@@](C)(c2ccccc2)C(=O)N1Nc1ccccc1 [fenamidone]
MeanFenamidone Nefl (gene Nefl, DESeq mean, 4 reps): 284.238
log2FoldChange Nefl (gene Nefl, vs vehicle, 4 reps): -1.45
MeanFenamidone (gene Neurl1a): 95.3821
log2FoldChange (gene Neurl1a): -1.321
MeanFenamidone Notch1 (gene Notch1, DESeq mean, 4 reps): 316.63
log2FoldChange Notch1 (gene Notch1, vs vehicle, 4 reps): 1.887
MeanFenamidone Notch3 (gene Notch3, DESeq mean, 4 reps): 258.391
log2FoldChange Notch3 (gene Notch3, vs vehicle, 4 reps): 2.018
MeanFenamidone Npnt (gene Npnt, DESeq mean, 4 reps): 335.437
log2FoldChange Npnt (gene Npnt, vs vehicle, 4 reps): 1.337
MeanFenamidone (gene Npr2): 171.686
log2FoldChange (gene Npr2): 1.617
MeanFenamidone (gene Nrep): 2228.26
log2FoldChange (gene Nrep): -1.081
MeanFenamidone (gene Nrg1): 57.9878
log2FoldChange (gene Nrg1): 2.155
MeanFenamidone (gene Nrxn3): 100.585
log2FoldChange (gene Nrxn3): -1.713
MeanFenamidone (gene Nsmf): 509.681
log2FoldChange (gene Nsmf): -1.17
MeanFenamidone Nuak2 (gene Nuak2, DESeq mean, 4 reps): 199.356
log2FoldChange Nuak2 (gene Nuak2, vs vehicle, 4 reps): 1.954
MeanFenamidone (gene Nup93): 78.3583
log2FoldChange (gene Nup93): 1.518
MeanFenamidone Nxph1 (gene Nxph1, DESeq mean, 4 reps): 23.0758
log2FoldChange Nxph1 (gene Nxph1, vs vehicle, 4 reps): -2.821
MeanFenamidone Nxph2 (gene Nxph2, DESeq mean, 4 reps): 12.3649
log2FoldChange Nxph2 (gene Nxph2, vs vehicle, 4 reps): -2.898
MeanFenamidone P2ry2 (gene P2ry2, DESeq mean, 4 reps): 92.6995
log2FoldChange P2ry2 (gene P2ry2, vs vehicle, 4 reps): 2.7714
MeanFenamidone (gene Parp3): 104.686
log2FoldChange (gene Parp3): 1.933
MeanFenamidone (gene Pcdh9): 219.607
log2FoldChange (gene Pcdh9): -1.474
MeanFenamidone (gene Pcdh17): 217.631
log2FoldChange (gene Pcdh17): -1.1203
MeanFenamidone Pcdh19 (gene Pcdh19, DESeq mean, 4 reps): 219.013
log2FoldChange Pcdh19 (gene Pcdh19, vs vehicle, 4 reps): -1.519
MeanFenamidone (gene Pcdhb9): 20.2277
log2FoldChange (gene Pcdhb9): -1.874
MeanFenamidone Pcyt1b (gene Pcyt1b, DESeq mean, 4 reps): 228.459
log2FoldChange Pcyt1b (gene Pcyt1b, vs vehicle, 4 reps): -1.515
MeanFenamidone Pdlim5 (gene Pdlim5, DESeq mean, 4 reps): 799.854
log2FoldChange Pdlim5 (gene Pdlim5, vs vehicle, 4 reps): 2.0349
MeanFenamidone Pgm2l1 (gene Pgm2l1, DESeq mean, 4 reps): 972.539
log2FoldChange Pgm2l1 (gene Pgm2l1, vs vehicle, 4 reps): -1.841
MeanFenamidone Phlda3 (gene Phlda3, DESeq mean, 4 reps): 537.092
log2FoldChange Phlda3 (gene Phlda3, vs vehicle, 4 reps): 1.998
MeanFenamidone Phldb2 (gene Phldb2, DESeq mean, 4 reps): 121.953
log2FoldChange Phldb2 (gene Phldb2, vs vehicle, 4 reps): 2.252
MeanFenamidone (gene Phyh): 85.5792
log2FoldChange (gene Phyh): 1.618
MeanFenamidone Piezo1 (gene Piezo1, DESeq mean, 4 reps): 449.998
log2FoldChange Piezo1 (gene Piezo1, vs vehicle, 4 reps): 2.353
MeanFenamidone Plcb3 (gene Plcb3, DESeq mean, 4 reps): 85.3651
log2FoldChange Plcb3 (gene Plcb3, vs vehicle, 4 reps): 2.324
MeanFenamidone (gene Plec): 505.373
log2FoldChange (gene Plec): 1.462
MeanFenamidone Plekha7 (gene Plekha7, DESeq mean, 4 reps): 128.547
log2FoldChange Plekha7 (gene Plekha7, vs vehicle, 4 reps): 1.951
MeanFenamidone Plekhg2 (gene Plekhg2, DESeq mean, 4 reps): 436.894
log2FoldChange Plekhg2 (gene Plekhg2, vs vehicle, 4 reps): 2.353
MeanFenamidone Plxnb2 (gene Plxnb2, DESeq mean, 4 reps): 1959.53
log2FoldChange Plxnb2 (gene Plxnb2, vs vehicle, 4 reps): 1.762
MeanFenamidone (gene Pnma2): 202.102
log2FoldChange (gene Pnma2): -1.217
MeanFenamidone (gene Ppard): 113.665
log2FoldChange (gene Ppard): 1.493
MeanFenamidone Ppm1e (gene Ppm1e, DESeq mean, 4 reps): 435.513
log2FoldChange Ppm1e (gene Ppm1e, vs vehicle, 4 reps): -1.5474
MeanFenamidone Pqlc3 (gene Pqlc3, DESeq mean, 4 reps): 109.637
log2FoldChange Pqlc3 (gene Pqlc3, vs vehicle, 4 reps): 2.1113
MeanFenamidone Prkcg (gene Prkcg, DESeq mean, 4 reps): 26.526
log2FoldChange Prkcg (gene Prkcg, vs vehicle, 4 reps): -1.929
MeanFenamidone (gene Prkcz): 141.39
log2FoldChange (gene Prkcz): -1.24
MeanFenamidone (gene Prrt2): 169.168
log2FoldChange (gene Prrt2): -1.281
MeanFenamidone (gene Prss23): 845.081
